# Test system: SNU-1 cells
# Assay: Staurosporine-induced apoptosis, Annexin V/7AAD flow cytometry
# Assay type: cell-based, human
# Conditions: staurosporine 1.0 μM
# Description: Staurosporine (STS), a kinase inhibitor, was added to the above cells at 1.0 μM to induce apoptosis (FIG. 4b). Apoptosis was detected with Annexin V, 7AAD kit (BD Bioscience), and analyzed by flow cytometry, BD FACSCalibur (BD Bioscience).
smiles,measurement,setting,value
"CN[C@@H]1C[C@H]2O[C@@](C)([C@@H]1OC)n1c3ccccc3c3c4c(c5c6ccccc6n2c5c31)C(=O)NC4 [staurosporine, Staurosporine]",cells in which apoptosis is induced,"SNU-1 cells that do not express CA1, within 3 hours",19.3%
same,cells in which apoptosis was induced,SNU-1 cells with forcedly expressed 3'-FLAG-tagged CA1,6.1%

# From patent US20220291217A1, “GASTRIC CANCER MARKER AND EXAMINATION METHOD USING SAME” (JAPANESE FOUNDATION FOR CANCER RESEARCH, priority 2019, published 2022)
